Experiments:
c-Jun (substrate of JNK) = assay: Phospho c-Jun immunofluorescence, high content imaging; assay type: cell-based; settings: reference treatment: 1 μM anisomycin 10 μg/mL, 30 min
Description: SACC was received as an aqueous stock solution. The different solutions were created by performing cascade dilutions in the culture medium.
Cells were seeded at 12 10^3 cells/well in 96 well plates and cultured for 24 h. Subsequently, cells were exposed to the different tested conditions (reference treatment: 1 μM anisomycin 10 μg/mL, 30 min). At the end of the treatment, the cells were processed for immunofluorescence with a specific antibody against the phosphorylated form of c-Jun. The fluorescent immune-staining was subsequently imaged by high content imaging. Single cell analysis of the phospho c-Jun immune-staining was performed.
The pharmacological modulators that decreased the cytotoxic effects of 1% SACC did it on the 1% were maximally effective at 50 h treatment. Therefore, the effect of SACC was studied after 50 h treatment with 0.1%; 0.3% and 1% SACC on phosphorylation level of the c-Jun (substrate of JNK).

BDNF = assay: Quantification of brain derived neurotrophic factor (BDNF) in hippocampus of ICV-OKA rats; assay type: in vivo, Wistar rats; settings: ICV-OKA rats compared to sham group
Description: Intracerebroventricular injection of okadaic acid was performed according to the procedure of Kamat et al. (2010). Rats were anesthetized with thiopentone (Neon Laboratories, India, 45 mg/kg, i.p.). The scalp was shaved, cleaned, and cut to expose the skull. The head was positioned in a stereotaxic frame and a midline sagittal incision was made in the scalp. Burr holes were drilled in the skull on both sides over the lateral ventricles by using the following coordinates: 0.8 mm posterior to bregma; 1.5 mm lateral to sagittal suture and 3.6 mm beneath the surface of the brain (Paxinos et al., 1980). Okadaic acid (200 ng) was injected bilaterally making the total dose of 100 ng in each ventricle. The concentration of okadaic acid in aCSF was adjusted so as to deliver 4 μl of the solution. Sham animals received ICV injection of the same volume of aCSF. The skin was sutured after injection followed by daily application of antiseptic powder (Neosporin). Postoperatively, the rats were fed with oral glucose and normal pellet diet for 4 days, followed by normal pellet diet alone.
(§1) The experimental design is illustrated in FIG. 1. […] Memory impairment was assessed by Morris Water Maze on days 15th, 21st, 28th. […]
The quantification of BDNF was done with the help and instructions provided by Millipore, USA quantikine rat BDNF immunoassay kit.

Phospho-Tau in neurons = assay: Okadaic acid induced Tau hyper-phosphorylation in primary cortical neurons (Phospho-Tau/MAP2 immunofluorescence); assay type: cell-based, rat
Description: The potential efficacy of the test compound (SAAC) against Alzheimer's disease was evaluated using an in vitro model in which Tau hyper-phosphorylation Is Induced by pharmacological treatment.
The test compound was tested in culture medium at […], and 10%. Positive control of reversion of hyperphosphorylation was […] at 3 mM.
Primary cortical cultures from E 19 rat embryos.
Phospho-Tau intensity in neurons and percentage of neurons with hyperphosphorylated Tau.
Cortical neurons from E 19 rat embryos were harvested and plated in 96 well plates. After 9 days in vitro, cells were treated with LiCI at 3 mM for 24 hours as a positive neuroprotective control or the test compound (SAAC) at 7 different concentrations. Another plate was pre-treated with the test compound (SAAC) at 7 different concentrations for 4 hours.
At the end of treatment durations, cells were treated with okadaic acid (OKA) for 3 hours. The cells were then fixed and processed for immunofluorescence analysis of Phospho-Tau (P-Tau) in neurons (Phospho-Tau labelling and neuronal labelling with MAP2 antibody).
After 9 days in vitro, neurons were treated with LiCI at 3 mM for 24 hours as a positive neuroprotective control (FIG. 5) or the test compound (SAAC) at 7 different concentrations (FIG. 7 & FIG. 8). At the end of treatment duration, cells were treated with okadaic acid (OKA) for 3 hours. After Phospho-Tau and MAP2 labelling, the signals were acquired and the mean intensity of Phospho-Tau staining in the neurons as well as the percentage of neurons with a high Phospho-Tau level was assessed.

ICV-OKA rats = assay: Cognitive performance in Morris water maze task, ICV-OKA rats; assay type: in vivo, Wistar rats; settings: ICV injection 100 ng each ventricle, 15th day
Description: Adult male Wistar rats (200-230 g, 2 months old) were used.
Nuclear factor kappa-light-chain-enhancer of activated B cells (NF-KB) and BDNF ELISA kits were procured from Imegenex, San Diego, USA and Millipore, USA respectively. All other chemicals used for biochemical estimations were of analytical grade. SAAC was dissolved in double distilled water (DDW) while okadaic acid was dissolved in artificial cerebrospinal fluid (aCSF) (2.9 mM KCl, 147 mM NaCl, 1.7 mM CaCl2, 1.6 mM MgCl2, and 2.2 mM D-glucose).
(§2) Intracerebroventricular injection of okadaic acid was performed according to the procedure of Kamat et al. (2010). Rats were anesthetized with thiopentone (Neon Laboratories, India, 45 mg/kg, i.p.). The scalp was shaved, cleaned, and cut to expose the skull. The head was positioned in a stereotaxic frame and a midline sagittal incision was made in the scalp. Burr holes were drilled in the skull on both sides over the lateral ventricles by using the following coordinates: 0.8 mm posterior to bregma; 1.5 mm lateral to sagittal suture and 3.6 mm beneath the surface of the brain (Paxinos et al., 1980). […]
as §1
The acquisition and retention of memory was evaluated by using Morris water maze (Morris et al., 1982; Tuzcu and Baydas, 2006). […]

NF-κβ p65 subunit = assay: Quantification of NF-KB p65 unit (ActivELISA) in hippocampus of ICV-OKA rats; assay type: in vivo, Wistar rats; settings: ICV-OKA administered rats
Description: as §2, with “1980). Okadaic acid (200 ng) was injected bilaterally making the total dose of 100 ng in each ventricle.” for “1980).”
as §1
The NF-KB/p65 ActivELISA kit (Imgenex, USA) was used to measure NF-KB-free p65 in the nuclear fraction of different brain regions. […] The NF-KB ActivELISA is a sandwich ELISA in which free p65 was captured by anti-p65 antibody-coated plates and the amount of bound p65 was detected by adding a second anti-p65 antibody followed by alkaline phosphatase conjugated secondary antibody using colorimetric detection in an ELISA plate reader at 405 nm. The results were expressed as ng/mg of protein.

COc1ccc(C[C@H]2NC[C@H](O)[C@H]2OC(C)=O)cc1 [Aniosomycin, anisomycin]
c-Jun phosphorylation (c-Jun (substrate of JNK)): induced c-Jun phosphorylation in the total population of treated cells

C=C1[C@@H](O)[C@@H]2O[C@]3(CC[C@H](/C=C/[C@@H](C)[C@@H]4CC(C)=C[C@@]5(O[C@H](C[C@@](C)(O)C(=O)O)CC[C@H]5O)O4)O3)CC[C@H]2O[C@@H]1[C@@H](O)C[C@H](C)[C@H]1O[C@@]2(CCCCO2)CC[C@H]1C [okadaic acid]
decrease in brain derived neurotrophic factors (BDNF): 40% | increase in the percentage of neurons with high Phospho-Tau levels (Phospho-Tau in neurons; 10 nM okadaic acid, 3 hours): ~2 fold | phosphorylation of Tau (Phospho-Tau in neurons; 10 nM okadaic acid, 4 h treatment experiment): not able to elicit any increase | increase in the percentage of neurons with high Phospho-Tau levels (Phospho-Tau in neurons; 100 nM okadaic acid, 3 hours): ~3 fold | phosphorylation of the Tau protein (Phospho-Tau in neurons; okadaic acid 10 nM and 100 nM, 3 hours): increased the phosphorylation of the Tau protein in a dose dependent way | amount of phosphorylated tau in the axons and dendrites of the neurons (Phospho-Tau in neurons; okadaic acid treatment alone): greatly increased | lower ability to find the platform and learn its location (ICV-OKA rats): 1.5 fold | elevation of NF-κβ p65 subunit in hippocampus (NF-κβ p65 subunit): 105%
